# Measured values: PMC12113998, “Exploring Multivalent Architectures for Binding and Stabilization of N-Acetylgalactosamine 6-Sulfatase” (Molecules, 2025)
# Marks after values point to notes of the source that are not given here.
# Biological target: T1, N-acetylgalactosamine-6-sulfatase (GALNS) (Homo sapiens, UniProt P34059)
# T1 construct: Isolated leukocytes were disrupted by sonication; from tissue; host or cells: human leukocytes from healthy donors (sonicated homogenate)
# T1 sequence (P34059 27-522): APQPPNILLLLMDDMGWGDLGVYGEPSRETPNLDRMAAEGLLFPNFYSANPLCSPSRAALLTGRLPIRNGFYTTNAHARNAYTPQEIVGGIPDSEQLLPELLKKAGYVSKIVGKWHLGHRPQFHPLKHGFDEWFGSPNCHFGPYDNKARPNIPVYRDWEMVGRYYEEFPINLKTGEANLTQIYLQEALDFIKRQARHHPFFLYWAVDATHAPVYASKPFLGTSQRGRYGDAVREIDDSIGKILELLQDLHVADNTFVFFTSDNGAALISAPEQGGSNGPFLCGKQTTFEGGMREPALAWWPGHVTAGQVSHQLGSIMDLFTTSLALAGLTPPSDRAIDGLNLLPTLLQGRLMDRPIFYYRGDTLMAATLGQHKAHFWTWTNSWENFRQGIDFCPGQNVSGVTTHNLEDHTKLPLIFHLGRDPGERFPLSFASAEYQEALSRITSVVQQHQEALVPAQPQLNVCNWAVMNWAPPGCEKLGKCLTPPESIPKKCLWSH
# Test: GALNS inhibition in leukocyte homogenate from healthy donors (4-methylumbelliferyl-β-galactoside-6-sulfate substrate, fluorescence)
# Type: biochemical
# Method: A preliminary biological screening of the newly synthesized multivalent compounds at 1 mM inhibitor concentration was performed against GALNS in leukocytes isolated from healthy donors. Enzymatic assays were performed in triplicate by incubating leukocyte homogenate, compound, and substrate (4-methylumbelliferyl-β-galactoside-6-sulfate.Na) in Na-acetate/acetic acid buffer (pH 4.3) at 37 °C for 17 h, followed by the addition of β-galactosidase from Aspergillus oryzae and further incubation to release 4-methylumbelliferone. The fluorescence was measured, and the inhibition percentages were calculated relative to the control. The results are summarized in Table 1, Table 2, Table 3 and Table 4, along with new inhibition data toward GALNS of multivalent inhibitors whose synthesis was reported previously by our group (23, 26, 30, 51, 52–54). For compounds showing poor to negligible inhibitory activity, only the GALNS inhibition percentage at 1 mM was reported.
# Enzymatic assays towards human GALNS in leukocytes isolated from healthy donors.
# All experiments on biological materials were performed in accordance with the ethical standards of the institutional research committee and with the 1964 Helsinki Declaration and its later amendments. In keeping with ethical guidelines, all blood and cell samples were obtained for storage and analysed only after written informed consent of the patients (and/or their family members) was obtained, using a form approved by the local Ethics Committee (Assigned code: Lysolate “Late -onset Lysosomal Storage Disorders (LSDs) in the differential diagnosis of neurodegenerative diseases: development of new diagnostic procedures and focus on potential pharmacological chaperones (PCs).” Project ID code: 16774_bio, 5 May 2020, Comitato Etico Regionale per la Sperimentazione Clinica della Regione Toscana, Area Vasta Centro, Florence, Italy). Control and patient samples were anonymized and used only for research purposes.
# A preliminary biological screening of compounds at 1 mM was performed towards GALNS in leukocytes isolated from healthy donors (controls). Isolated leukocytes were disrupted by sonication, and a micro BCA protein assay kit (Sigma–Aldrich) was used to determine the total protein amount for the enzymatic assay, according to the manufacturer instructions. Enzyme activity was measured by setting the reaction in 0.2 mL tubes and performing the experiments in triplicates as follows. Compound solution (3 µL), 4.29 μg/μL leukocyte homogenate 1:5 (7 μL) and 20 µL of 4-methylumbelliferyl-β-galactoside-6-sulfate.Na substrate solution (6.66mM) in Na-Acetate/acetic acid buffer (0.1 M/0.1 M, pH 4.3) containing 0.1 M NaCl, 0.02% (w/v) NaN3 and 5 mM Pb-acetate were incubated for 17 h at 37 °C. After step one, the tubes were placed on an ice cooler and the reaction was stopped by addition of 5 µL of Na-phosphate buffer (0.9 M, pH 4.3) containing 0.02 % (w/v) of NaN3 and by efficient mixing with vortex. Then, 10 µL of β-galactosidase from Aspergillus oryzae (β-Gal-A-10U) were added to each sample and samples were incubated for 2 h at 37°C. At the end of this period the tubes were placed on an ice cooler and the samples were transferred in a cooled flat –bottomed 96 well plate and the reaction was immediately stopped with 2 00 µL of NaHCO3/Na2CO3 buffer (0.5 M/0.5 M pH 10.7) containing 0.025% (w/v) of Triton X -100. Fluorescence was measured in a SpectraMax M2 microplate reader (Molecular-Devices) using a 365 nm excitation wavelength and a 435 nm emission wavelength. Percentage of GALNS inhibition was given with respect to the control (without compound).
# Experiments were performed in triplicate, and the mean ± S. D. was calculated.
# Figure S52. GALNS activity in the absence Figure S53. GALNS activity in the absence (Ctrl) and presence of scaffold 12 at a 1 mM (Ctrl) and presence of the new multivalent […]
# The corresponding calculated inhibition of the main text) at a 1 mM concentration in […]
# [1] = calculated considering 34 as the monovalent reference compound
structure (smiles),measurement,setting,value
O=C(NC(COCc1cn(CCCCCCN2CC(O)C(O)C2CO)nn1)(COCc1cn(CCCCCCN2CC(O)C(O)C2CO)nn1)COCc1cn(CCCCCCN2CC(O)C(O)C2CO)nn1)c1cc(C(=O)NC(COCc2cn(CCCCCCN3CC(O)C(O)C3CO)nn2)(COCc2cn(CCCCCCN3CC(O)C(O)C3CO)nn2)COCc2cn(CCCCCCN3CC(O)C(O)C3CO)nn2)cc(C(=O)NC(COCc2cn(CCCCCCN3CC(O)C(O)C3CO)nn2)(COCc2cn(CCCCCCN3CC(O)C(O)C3CO)nn2)COCc2cn(CCCCCCN3CC(O)C(O)C3CO)nn2)c1 (stereo not shown) [Compound 1],rp (relative potency),[1],83
same,rp (relative potency),calculated with respect to the scaffold 38,1.5
OCC1C(O)C(O)CN1CCCCCCn1cc(COCC(COCc2cn(CCCCCCN3CC(O)C(O)C3CO)nn2)(COCc2cn(CCCCCCN3CC(O)C(O)C3CO)nn2)NCc2cc(CNC(COCc3cn(CCCCCCN4CC(O)C(O)C4CO)nn3)(COCc3cn(CCCCCCN4CC(O)C(O)C4CO)nn3)COCc3cn(CCCCCCN4CC(O)C(O)C4CO)nn3)cc(CNC(COCc3cn(CCCCCCN4CC(O)C(O)C4CO)nn3)(COCc3cn(CCCCCCN4CC(O)C(O)C4CO)nn3)COCc3cn(CCCCCCN4CC(O)C(O)C4CO)nn3)c2)nn1 (stereo not shown) [Compound 36],rp (relative potency),[1],139 ^[b]
same,IC50,human leukocyte extracts,28 ± 5 µM
